Measured values as given in patent US20240391862A1, “(1,4,5-TRISUBSTITUTED-1H-PYRAZOL-3-YL)OXY-2-ALKOXY ALKYL ACIDS AND THEIR DERIVATIVES, THEIR SALTS AND THEIR USE AS HERBICIDAL AGENTS” (Bayer AKtiengesellschaft, priority 2021, published 2024).

Assays:
[1] = system: TRZAS; experiment: Post-emergence herbicidal effect and crop plant compatibility, greenhouse pot test; type: in vivo, Triticum aestivum; details: for Post-emergence effect against TRZAS: visual rating about 3 weeks after treatment, crop plant
In short: (§1)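 Visual % activity scored roughly 3 weeks post-spray against untreated plants, where 100% means death and 0% equals control. Plants were treated at the one-leaf stage, 2 to 3 weeks after sowing in sandy loam, at 20 to 320 g/ha.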

[2] = system: AMARE; experiment: Post-emergence herbicidal effect, greenhouse pot test; type: in vivo, Amaranthus retroflexus; details: 320 g/ha, visual rating about 3 weeks after treatment
In short: (§2)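 Sandy loam pots, greenhouse. One-leaf stage (2–3 wk after sowing) foliar spray; WP/EC in water + 0.5% additive, 600 l/ha; 20–320 g/ha. Visual score ~3 wk, 0–100% vs untreated.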

[3] = system: GLXMA; experiment: Post-emergence herbicidal effect and crop plant compatibility, greenhouse pot test; type: in vivo, Glycine max; details: visual rating about 3 weeks after treatment, crop plant
Excerpt: (§3) • ALOMY: Alopecurus myosuroides SETVI: Setaria viridis • AVEFA: Avena fatua POLCO: Fallopia convolvulus • AMARE: Amaranthus retroflexus ECHCG: Echinochloa crus-galli • LOLRJ: Lolium rigidum STEME: Stellaria media • VERPE: Veronica persica MATIN: Tripleurospermum inodorum • DIGSA: Digitaria sanguinalis ABUTH: Abutylon threophrasti • TRZAS: Triticum aestivum VIOTR: Viola tricolor • BRSNW: Brassica napus ZEAMX: Zea mays • PHBPU: Ipomoea purpurea GLXMA: Glycine max • ORYSA: Oryza sativa HORMU: Hordeum murinum
Seeds of monocotyledonous and dicotyledonous weeds and crop plants are placed in sandy loam in plastic or organic planting pots, covered with soil and cultivated in a greenhouse under controlled growth conditions. 2 to 3 weeks after sowing, the trial plants are treated at the one-leaf stage. The compounds of the invention, formulated in the form of wettable powders (WP) or as emulsion concentrates (EC), are then sprayed onto the green parts of the plants as aqueous suspension or emulsion with addition of 0.5% additive at a water application rate of 600 l/ha (converted). After the test plants have been kept in the greenhouse under optimum growth conditions for about 3 weeks, the activity of the preparations is rated visually in comparison to untreated controls. For example, 100% activity=the plants have died, 0% activity=like control plants.
Tables 20a to 38c below show the effects/crop compatibilities of selected compounds of the general formula (I) on various harmful plants at an application rate corresponding to 20 to 320 g/ha, which were obtained by the trial procedure specified above.

[4] = system: PHBPU; experiment: Post-emergence herbicidal effect, greenhouse pot test; type: in vivo, Ipomoea purpurea; details: 320 g/ha
In short: as §2

[5] = system: ZEAMX; experiment: Post-emergence herbicidal effect and crop plant compatibility, greenhouse pot test; type: in vivo, Zea mays; details: one-leaf stage, rated visually after about 3 weeks vs untreated controls; for plant injury at 80 g/ha: Zea mays, 504 h, read-out: Post-emergence effect at 80 g/ha against ZEAMX in %
In short: as §1

[6] = system: ABUTH; experiment: Post-emergence herbicidal effect, greenhouse pot test; type: in vivo, Abutilon theophrasti; details: visual rating about 3 weeks after treatment
In short: as §2

[7] = system: ORYSA; experiment: Post-emergence herbicidal effect and crop plant compatibility, greenhouse pot test; type: in vivo, Oryza sativa; details: for Post-emergence effect against ORYSA: 80 g/ha, visual rating about 3 weeks after treatment, crop plant; for Post-emergence effect at 320 g/ha against ORYSA in %: one-leaf stage, rated visually after about 3 weeks vs untreated controls
In short: as §1

[8] = system: TRZAS; experiment: Pre-emergence herbicidal effect and crop plant compatibility, greenhouse pot test; type: in vivo, Triticum aestivum; details: scored visually after about 3 weeks vs untreated controls
Excerpt: (§4) Seeds of monocotyledonous and dicotyledonous weed plants and crop plants are placed in plastic or organic planting pots and covered with soil. The compounds of the invention, formulated in the form of wettable powders (WP) or as emulsion concentrates (EC), are then applied to the surface of the covering soil as aqueous suspension or emulsion with addition of 0.5% additive at a water application rate equivalent to 600 l/ha. After the treatment, the pots are placed in a greenhouse and kept under good growth conditions for the trial plants. After about 3 weeks, the effect of the preparations is scored visually in comparison with untreated controls as percentages. For example, 100% activity=the plants have died, 0% activity=like control plants.
(§5) Tables 1a to 19c below show the effects/crop compatibilities of selected compounds of the general formula (I) on various harmful plants at an application rate corresponding to 20 to 320 g/ha, which were obtained by the trial procedure specified above.
as §3

[9] = system: ZEAMX; experiment: as above; type: in vivo, Zea mays; details: scored visually after about 3 weeks vs untreated controls
Excerpt: as §4, §5, §3

[10] = system: GLXMA; experiment: as above; type: in vivo, Glycine max; details: scored visually after about 3 weeks vs untreated controls
Excerpt: as §4, §5, §3

[11] = system: BRSNW; experiment: as above; type: in vivo, Brassica napus; details: scored visually after about 3 weeks vs untreated controls
Excerpt: as §4, §5, §3

[12] = system: ORYSA; experiment: as above; type: in vivo, Oryza sativa; details: scored visually after about 3 weeks vs untreated controls
Excerpt: as §4, §5, §3

[13] = system: AMARE; experiment: Pre-emergence herbicidal effect, greenhouse pot test; type: in vivo, Amaranthus retroflexus; details: Amaranthus retroflexus, 504 h, 320 g/ha, scored visually after about 3 weeks vs untreated controls, read-out: Pre-emergence effect at 320 g/ha against AMARE in %
Excerpt: as §4, §5, §3

[14] = system: VERPE; experiment: Post-emergence herbicidal effect, greenhouse pot test; type: in vivo, Veronica persica; details: Veronica persica, 504 h, 320 g/ha, read-out: Post-emergence effect against VERPE in %
In short: as §2

[15] = system: SETVI; experiment: as above; type: in vivo, Setaria viridis; details: Setaria viridis, 504 h, 320 g/ha, read-out: Post-emergence effect against SETVI in %
In short: as §2

[16] = system: ECHCG; experiment: as above; type: in vivo, Echinochloa crus-galli; details: Echinochloa crus-galli, 504 h, 320 g/ha, read-out: Post-emergence effect against ECHCG in %
In short: as §2

[17] = system: MATIN; experiment: as above; type: in vivo, Tripleurospermum inodorum; details: Tripleurospermum inodorum, 504 h, 320 g/ha, read-out: Post-emergence effect against MATIN in %
In short: as §2

[18] = system: ALOMY; experiment: as above; type: in vivo, Alopecurus myosuroides; details: Alopecurus myosuroides, 504 h, 320 g/ha, visual rating about 3 weeks after treatment, read-out: Post-emergence effect against ALOMY
In short: as §2

[19] = system: SETVI; experiment: Pre-emergence herbicidal effect, greenhouse pot test; type: in vivo, Setaria viridis; details: Setaria viridis, 504 h, 320 g/ha, scored visually after about 3 weeks vs untreated controls, read-out: Pre-emergence effect at 320 g/ha against SETVI in %
Excerpt: as §4, §5, §3

Compound	Post-emergence effect against TRZAS ([1]; 80 g/ha)	Post-emergence effect against TRZAS ([1]; 320 g/ha)	Post-emergence effect against ORYSA [7]	Post-emergence effect against GLXMA ([3]; 80 g/ha)	Pre-emergence effect at 80 g/ha against TRZAS in % [8]	Pre-emergence effect at 320 g/ha against TRZAS in % [8]	Post-emergence effect at 80 g/ha against ZEAMX in % [5]	Post-emergence effect at 320 g/ha against ZEAMX in % [5]	Pre-emergence effect at 80 g/ha against ZEAMX in % [9]	Pre-emergence effect at 80 g/ha against GLXMA in % [10]	Pre-emergence effect at 320 g/ha against GLXMA in % [10]	Post-emergence effect at 320 g/ha against ORYSA in % [7]	Pre-emergence effect at 80 g/ha against BRSNW in % [11]	Pre-emergence effect at 80 g/ha against ORYSA in % [12]	plant injury at 80 g/ha [5]	pest or weed control at 320 g/ha [14]	pest or weed control at 320 g/ha [15]	Pre-emergence effect at 320 g/ha against ZEAMX in % [9]	pest or weed control at 320 g/ha [16]	Pre-emergence effect at 320 g/ha against ORYSA in % [12]	other results
COC(=O)C(OC)Oc1nn(-c2cccc(C)c2F)c(-c2ccc(F)nc2)c1C1CC1 (stereo not shown) [Example I-93]	10%	20%	–	–	–	–	–	–	–	–	–	–	–	–	–	–	–	–	–	–	Post-emergence effect at 20 g/ha against TRZAS in % ([1]; 20 g/ha, one-leaf stage, rated visually after about 3 weeks vs untreated controls): 0%; Post-emergence effect against AMARE [2]: 90%; Post-emergence effect against GLXMA ([3]; 20 g/ha): 20%; Post-emergence effect against PHBPU in % [4]: 80%; Post-emergence effect at 20 g/ha against ZEAMX in % ([5]; 20 g/ha): 10%; Post-emergence effect against ABUTH ([6]; 80 g/ha): 80%; Post-emergence effect against ABUTH ([6]; 320 g/ha): 90%
COC(=O)C(OC)Oc1nn(-c2ccc(Cl)cc2F)c(-c2ccc(F)cc2F)c1Br (stereo not shown) [Example I-11]	0%	0%	0%	20%	0%	0%	0%	0%	0%	0%	0%	–	–	–	–	–	–	–	–	–	–
COC(=O)C(OC)Oc1nn(-c2ncccc2F)c(-c2ccc(Cl)cc2)c1Br (stereo not shown) [Example I-03]	–	–	–	–	–	0%	–	–	20%	20%	–	10%	20%	0%	20%	90%	80%	20%	80%	–	pest or weed control at 320 g/ha [13]: 80%
CCOC(=O)C(OCC)Oc1nn(-c2ncccc2F)c(-c2ccc(F)cc2F)c1Br (stereo not shown) [Example I-08]	–	–	–	–	0%	0%	–	–	0%	0%	–	–	–	0%	–	80%	80%	10%	80%	0%	pest or weed control at 320 g/ha [17]: 80%; pest or weed control at 320 g/ha [18]: 90%
CCOC(=O)C(OCC)Oc1nn(-c2ncccc2F)c(-c2ccc(Cl)cc2)c1Br (stereo not shown) [Example I-02]	–	–	–	–	–	–	–	–	–	0%	0%	10%	0%	0%	10%	–	–	–	–	0%	Pre-emergence effect at 320 g/ha against BRSNW in % [11]: 0%; pest or weed control at 320 g/ha [19]: 80%
CCOC(=O)C(OCC)Oc1nn(-c2ccc(Cl)cc2F)c(-c2ccc(F)cc2F)c1Br (stereo not shown) [Example I-09]	0%	0%	10%	10%	0%	20%	0%	0%	–	10%	10%	–	0%	–	–	–	–	10%	–	–	Pre-emergence effect at 320 g/ha against BRSNW in % [11]: 0%; Post-emergence effect against GLXMA ([3]; 320 g/ha): 20%
